What was measured:
[1] = clinical studies, doses up to 1.5 mg cotinine base/kg; cited from earlier work
[2] = tested on: 17-ketosteroid reductase; settings: in vitro; cited from earlier work
[3] = administered in the drinking water for 78 weeks; rats initiated with FANFT; cited from earlier work
[4] = tested on: monocytes; settings: α7nAChR-dependent; cited from earlier work
[5] = tested on: Salmonella; settings: 0-1000 μg/plate; cited from earlier work
[6] = tested on: Chinese hamster ovary; settings: 0-1000 μg/ml; cited from earlier work
[7] = Porsolt's forced swim test, depressive-like behavior in rats subjected to CMF chemotherapy; assay type: in vivo, Wistar female rats; settings: cotinine 5 mg/kg oral
Procedure: Wistar female rats (2-4 months of age, 200-300 g) (n=10/group) were obtained from Harlan laboratories. Rats were housed in pairs, kept at 12 h light/12 h dark cycle and maintained in an air-conditioned room at a temperature of 21±1° C. and relative humidity of 60±10%. Food and water were available ad libitum. All rats were acclimated to the Veterinary Medical Unit for 1 week and handled daily. Weight was recorded every 2 days to assess for dehydration induced by the chemotherapy regime. […]
This task was chosen to determine the effect of cotinine on depressive-like behavior is one of the more broadly used to assess potential antidepressant effects of drugs (Porsolt R D, Bertin A, Jalfre M (1977) Behavioral despair in mice: a primary screening test for antidepressants. Arch Int Pharmacodyn Ther 229(2):327-336; Castagne V, Moser P, Roux S, Porsolt R D (2010) Rodent models of depression: forced swim and tail suspension behavioral despair tests in rats and mice. Curr Protoc Neurosci 49:5.8.1-5.8.14). […] The freezing behavior, during 6-min trials, was recorded on video and scored by investigators blinded to the treatment arms. The immobility (freezing) time was recorded during a 6-min forced swim (FS) trial. […] The time in seconds (sec) spent by the mice immobile was scored by two investigators blind to the mice's treatments. […]

Structure (SMILES): CN1C(=O)CC[C@H]1c1cccnc1 [cotinine, (5S)-1-methyl-5-(3-pyridyl) pyrrolidin-2-one]
- recall of a short list [1]: did not affected the recall
- recall on the long list on a verbal recall task [1]: impaired recall
- inhibition of 17-ketosteroid reductase [2]: inhibiting
- carcinogenicity / promotion of urinary bladder tumors [3]: neither carcinogenic nor promoted urinary bladder tumors
- inflammatory response to gram-negative bacteria (expression of TNF-α, IL-1β and IL-6) [4]: reduced the inflammatory response
- genotoxic effects, Salmonella mutagenicity [5]: no genotoxic effects
- genotoxic effects, sister chromatid exchange (SCE) [6]: no genotoxic effects
- depressive-like behavior (immobility), chemotherapy-treated vs chemotherapy and cotinine-treated ([7]; CMF-treated rats, p<0.01): significant reduction
- depressive-like behavior (immobility), vehicle-treated vs cotinine-treated ([7]; rats without chemotherapy, p<0.001): significant reduction

Source: patent publication US10307411B2, “Use of cotinine in treating or preventing neurogenesis deficits and enhancing neurogenesis” (Department of Veterans Affairs, priority 2014, dated 2019)
